Laboratory results published in ChEMBL document CHEMBL5291721, “A preclinical secondary pharmacology resource illuminates target-adverse drug reaction associations of marketed drugs” (Nat Commun, 2023).

Legend:
[1] = target: T1, Androgen receptor (Rattus norvegicus, UniProt P15207); assay type: functional
T1 sequence (P15207 whole entry): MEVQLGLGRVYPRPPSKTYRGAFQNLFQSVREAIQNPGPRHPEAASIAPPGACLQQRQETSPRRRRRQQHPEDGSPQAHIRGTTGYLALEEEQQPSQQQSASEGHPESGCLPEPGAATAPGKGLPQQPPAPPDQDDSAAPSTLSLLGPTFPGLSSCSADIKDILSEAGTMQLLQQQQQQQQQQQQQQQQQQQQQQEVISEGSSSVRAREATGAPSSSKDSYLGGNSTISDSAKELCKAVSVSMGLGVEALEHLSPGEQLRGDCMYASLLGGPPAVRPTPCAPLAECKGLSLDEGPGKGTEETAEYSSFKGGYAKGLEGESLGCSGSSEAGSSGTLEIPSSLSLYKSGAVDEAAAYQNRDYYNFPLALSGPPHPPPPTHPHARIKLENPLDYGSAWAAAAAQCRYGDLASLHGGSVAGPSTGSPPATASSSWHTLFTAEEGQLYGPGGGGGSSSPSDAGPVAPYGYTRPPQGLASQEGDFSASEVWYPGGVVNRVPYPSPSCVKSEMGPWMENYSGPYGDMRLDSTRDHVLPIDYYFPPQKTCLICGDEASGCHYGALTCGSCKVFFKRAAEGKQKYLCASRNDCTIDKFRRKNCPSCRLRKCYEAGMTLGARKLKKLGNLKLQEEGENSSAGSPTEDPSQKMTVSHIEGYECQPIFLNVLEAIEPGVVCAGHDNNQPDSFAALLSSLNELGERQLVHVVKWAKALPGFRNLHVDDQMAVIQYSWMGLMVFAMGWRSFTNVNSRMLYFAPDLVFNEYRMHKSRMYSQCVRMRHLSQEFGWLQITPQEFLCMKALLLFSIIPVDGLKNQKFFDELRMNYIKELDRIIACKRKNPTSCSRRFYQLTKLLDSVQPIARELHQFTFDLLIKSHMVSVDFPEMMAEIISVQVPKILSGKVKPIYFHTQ

[2] = target: T1, Androgen receptor; assay type: functional; remark: listed apart in the source
[3] = target: T1, Androgen receptor
[4] = target: T2, Alpha-2A adrenergic receptor (Homo sapiens, UniProt P08913)
T2 sequence (P08913 whole entry): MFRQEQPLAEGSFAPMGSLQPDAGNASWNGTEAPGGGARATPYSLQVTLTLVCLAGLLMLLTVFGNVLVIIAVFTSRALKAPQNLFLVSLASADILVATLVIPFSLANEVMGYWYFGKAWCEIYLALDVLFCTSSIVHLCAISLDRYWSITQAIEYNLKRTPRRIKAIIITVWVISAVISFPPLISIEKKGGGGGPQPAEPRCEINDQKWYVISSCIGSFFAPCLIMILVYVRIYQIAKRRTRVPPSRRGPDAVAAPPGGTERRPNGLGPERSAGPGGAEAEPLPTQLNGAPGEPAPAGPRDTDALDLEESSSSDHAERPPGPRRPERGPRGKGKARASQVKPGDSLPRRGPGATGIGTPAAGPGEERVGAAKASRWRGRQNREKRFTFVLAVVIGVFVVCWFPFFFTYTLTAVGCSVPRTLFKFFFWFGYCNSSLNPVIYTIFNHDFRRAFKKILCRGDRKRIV

[5] = target: T3, Progesterone receptor (Homo sapiens, UniProt P06401)
T3 sequence (P06401 whole entry): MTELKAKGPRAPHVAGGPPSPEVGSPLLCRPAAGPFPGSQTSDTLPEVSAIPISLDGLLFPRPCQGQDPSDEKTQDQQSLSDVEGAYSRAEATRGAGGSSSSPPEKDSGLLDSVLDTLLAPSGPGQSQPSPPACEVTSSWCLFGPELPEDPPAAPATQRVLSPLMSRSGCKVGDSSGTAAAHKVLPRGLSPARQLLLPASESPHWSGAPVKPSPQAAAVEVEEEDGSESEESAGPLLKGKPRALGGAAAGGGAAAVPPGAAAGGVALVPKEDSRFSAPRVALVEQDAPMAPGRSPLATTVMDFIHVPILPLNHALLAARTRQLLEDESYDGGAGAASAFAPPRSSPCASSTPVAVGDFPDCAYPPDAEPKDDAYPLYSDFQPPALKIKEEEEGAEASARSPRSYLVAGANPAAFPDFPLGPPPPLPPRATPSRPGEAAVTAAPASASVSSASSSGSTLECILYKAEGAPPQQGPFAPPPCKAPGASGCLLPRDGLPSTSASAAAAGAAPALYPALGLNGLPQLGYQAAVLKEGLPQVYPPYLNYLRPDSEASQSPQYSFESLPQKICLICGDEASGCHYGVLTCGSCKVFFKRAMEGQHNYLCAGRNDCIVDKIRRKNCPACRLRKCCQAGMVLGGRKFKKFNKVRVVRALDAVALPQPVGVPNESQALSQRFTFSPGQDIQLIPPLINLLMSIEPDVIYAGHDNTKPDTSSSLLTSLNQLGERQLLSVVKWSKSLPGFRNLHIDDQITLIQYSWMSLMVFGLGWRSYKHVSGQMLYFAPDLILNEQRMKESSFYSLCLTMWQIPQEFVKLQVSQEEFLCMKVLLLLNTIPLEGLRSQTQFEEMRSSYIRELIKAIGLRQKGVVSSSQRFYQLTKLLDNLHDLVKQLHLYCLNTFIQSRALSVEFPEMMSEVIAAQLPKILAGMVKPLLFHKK

[6] = target: Histamine H2 receptor (Homo sapiens, UniProt P25021)
Chain of Histamine H2 receptor (P25021 whole entry): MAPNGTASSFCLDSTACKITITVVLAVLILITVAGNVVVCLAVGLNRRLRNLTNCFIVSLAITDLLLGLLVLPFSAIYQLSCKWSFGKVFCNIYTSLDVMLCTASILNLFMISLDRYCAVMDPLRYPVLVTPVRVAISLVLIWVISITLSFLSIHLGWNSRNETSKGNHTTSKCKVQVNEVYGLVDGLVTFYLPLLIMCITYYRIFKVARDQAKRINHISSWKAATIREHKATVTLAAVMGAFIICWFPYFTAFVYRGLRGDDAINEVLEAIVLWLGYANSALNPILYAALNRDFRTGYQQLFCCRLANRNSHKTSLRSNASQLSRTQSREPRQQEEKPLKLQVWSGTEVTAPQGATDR

[7] = target: Glucagon receptor (Homo sapiens, UniProt P47871)
Chain of Glucagon receptor (P47871 whole entry): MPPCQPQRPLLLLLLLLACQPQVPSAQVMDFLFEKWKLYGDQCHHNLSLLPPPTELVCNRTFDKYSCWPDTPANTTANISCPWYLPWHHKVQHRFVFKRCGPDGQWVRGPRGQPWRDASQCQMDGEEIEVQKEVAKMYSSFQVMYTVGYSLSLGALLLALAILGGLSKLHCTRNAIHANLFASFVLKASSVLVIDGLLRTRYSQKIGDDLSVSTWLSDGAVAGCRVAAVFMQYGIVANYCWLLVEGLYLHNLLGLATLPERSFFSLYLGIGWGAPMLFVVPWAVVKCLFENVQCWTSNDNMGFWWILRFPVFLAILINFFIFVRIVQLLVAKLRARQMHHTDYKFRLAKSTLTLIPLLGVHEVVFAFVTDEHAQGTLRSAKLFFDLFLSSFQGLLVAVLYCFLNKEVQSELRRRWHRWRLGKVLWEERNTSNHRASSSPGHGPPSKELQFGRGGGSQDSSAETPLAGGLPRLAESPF

[8] = target: T4, Histamine H1 receptor (Homo sapiens, UniProt P35367); assay type: functional, cell-based
T4 sequence (P35367 whole entry): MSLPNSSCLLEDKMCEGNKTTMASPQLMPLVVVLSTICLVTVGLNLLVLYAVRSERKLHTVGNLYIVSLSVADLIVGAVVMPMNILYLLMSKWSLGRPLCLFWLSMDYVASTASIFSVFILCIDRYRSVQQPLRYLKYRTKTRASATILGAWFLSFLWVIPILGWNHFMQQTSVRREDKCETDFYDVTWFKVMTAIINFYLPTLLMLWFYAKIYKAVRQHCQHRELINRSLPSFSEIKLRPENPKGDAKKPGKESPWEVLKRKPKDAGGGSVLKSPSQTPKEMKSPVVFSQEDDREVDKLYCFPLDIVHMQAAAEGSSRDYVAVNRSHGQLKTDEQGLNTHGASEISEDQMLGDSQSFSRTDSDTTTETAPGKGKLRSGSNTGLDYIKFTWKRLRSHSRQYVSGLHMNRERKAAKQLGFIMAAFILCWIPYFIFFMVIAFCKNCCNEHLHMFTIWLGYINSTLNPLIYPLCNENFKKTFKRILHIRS

[9] = target: T4, Histamine H1 receptor; assay type: functional, cell-based; remark: listed apart in the source
[10] = target: T5, D(4) dopamine receptor (Homo sapiens, UniProt P21917)
T5 sequence (P21917 whole entry): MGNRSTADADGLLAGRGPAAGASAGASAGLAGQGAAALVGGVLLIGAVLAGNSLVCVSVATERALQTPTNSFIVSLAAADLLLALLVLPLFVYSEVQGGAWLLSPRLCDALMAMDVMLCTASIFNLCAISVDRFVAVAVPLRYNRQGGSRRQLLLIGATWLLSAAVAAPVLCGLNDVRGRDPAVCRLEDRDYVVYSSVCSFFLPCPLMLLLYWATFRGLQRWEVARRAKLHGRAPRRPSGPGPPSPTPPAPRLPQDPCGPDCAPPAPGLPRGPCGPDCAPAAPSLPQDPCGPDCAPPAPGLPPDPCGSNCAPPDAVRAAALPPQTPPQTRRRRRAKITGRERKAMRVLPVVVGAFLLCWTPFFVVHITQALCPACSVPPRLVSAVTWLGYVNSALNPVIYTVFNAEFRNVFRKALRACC
Also: assay procedure not described here.

CC(C)N(CCCCOCC(=O)O)c1cnc(-c2ccccc2)c(-c2ccccc2)n1
AC50 [1]: > 30 µM
AC50 [2]: 19 µM

CC(=O)c1ccc(S(=O)(=O)NC(=O)NC2CCCCC2)cc1 [ACETOHEXAMIDE]
AC50 [3]: > 10 µM

COc1cc(C)c(/C=C/C(C)=C/C=C/C(C)=C/C(=O)O)c(C)c1C [ACITRETIN]
AC50 [3]: 4.6 µM

CCC1(CCC(C)C)C(=O)NC(=O)NC1=O [AMOBARBITAL]
AC50 [3]: > 10 µM

Cc1cc(=O)n(-c2ccccc2)n1C [ANTIPYRINE]
AC50 [4]: > 10 µM
AC50 [5]: > 30 µM
AC50 [3]: > 30 µM

O=C(O)c1ccc(NC(=O)[C@H](Cc2ccc(O)cc2)NC(=O)c2ccccc2)cc1 [BENTIROMIDE]
AC50 [3]: > 10 µM

NS(=O)(=O)c1cc2c(cc1Cl)N=C(CSCc1ccccc1)NS2(=O)=O [BENZTHIAZIDE]
AC50 [4]: 2.48 µM

Clc1ccc(CCC(Cn2ccnc2)Sc2c(Cl)cccc2Cl)cc1 (centres undefined) [BUTOCONAZOLE]
AC50 [1]: > 30 µM
AC50 [2]: 9.2 µM

COc1cc(N)c(Cl)cc1C(=O)NC1CCN(CCCOc2ccc(F)cc2)CC1OC (centres undefined) [CISAPRIDE]
AC50 [6]: > 10 µM
AC50 [7]: > 30 µM
AC50 [5]: > 30 µM

CC(CN(C)C)C(C)(O)Cc1ccc(Cl)cc1 (centres undefined) [CLOBUTINOL]
AC50 [8]: > 30 µM
AC50 [9]: > 30 µM
AC50 [3]: > 30 µM

CCOC(=O)C(C)(C)Oc1ccc(Cl)cc1 [CLOFIBRATE]
AC50 [7]: > 30 µM
AC50 [5]: > 30 µM

CC(C)NC[C@H](O)COc1ccc(CC(N)=O)cc1 [ESATENOLOL]
AC50 [6]: > 10 µM
AC50 [10]: > 10 µM
AC50 [4]: > 10 µM
AC50 [7]: > 30 µM
AC50 [5]: > 30 µM

CCOC(=O)c1ncn2c1CN(C)C(=O)c1cc(F)ccc1-2 [FLUMAZENIL]
AC50 [1]: > 30 µM
AC50 [3]: > 10 µM
AC50 [2]: > 30 µM

CC/C=C\C/C=C\C/C=C\C/C=C\C/C=C\CCCC(=O)OCC [ICOSAPENT ETHYL]
AC50 [1]: > 30 µM
AC50 [2]: 23 µM

NNC(=O)c1ccncc1 [ISONIAZID]
AC50 [6]: > 10 µM
AC50 [10]: > 10 µM
AC50 [4]: > 10 µM
AC50 [7]: > 30 µM
AC50 [5]: > 30 µM

O=C1Nc2ccc(Cl)cc2C(c2ccccc2Cl)=NC1O (centres undefined) [LORAZEPAM]
AC50 [6]: > 10 µM
AC50 [10]: > 10 µM
AC50 [4]: > 10 µM
AC50 [7]: > 30 µM
AC50 [5]: 26.2 µM
AC50 [3]: > 30 µM

CC(=O)[C@H]1CC[C@H]2[C@@H]3C[C@H](C)C4=CC(=O)CC[C@]4(C)[C@H]3[C@@H](O)C[C@]12C [MEDRYSONE]
AC50 [3]: 0.257 µM

Cc1ccnc2c1NC(=O)c1cccnc1N2C1CC1 [NEVIRAPINE]
AC50 [6]: > 10 µM
AC50 [10]: > 10 µM
AC50 [4]: > 10 µM
AC50 [7]: > 30 µM
AC50 [5]: > 30 µM

O=C(NCCO[N+](=O)[O-])c1cccnc1 [NICORANDIL]
AC50 [8]: > 30 µM
AC50 [9]: > 30 µM
